Experimental data reported in patent US10005818B2, “Derivative peptide compounds and methods of use” (REALTA HOLDINGS, LLC, priority 2010, dated 2018).
Where two headings read alike, the source gives them in different places.

Tests used:
[1] = tested on: hypoxic ischemic brain injury; format: in vivo, Wistar rat
[2] = tested on: complement-mediated hemolysis of transfused huRBCs; test: AIHTR Wistar rat model, 15% xenotransfusion of human RBCs; format: in vivo; conditions: CVF 130 μg I.P. 24 hours prior to transfusion
Description: This process generates 1 ml huRBCs at 80% hematocrit, which was given as a 15% transfusion to the rats.
Using weight-based doses of ketamine and acepromazine, animals were sedated throughout the course of the experiment with periodic monitoring of vital signs. Blood samples were collected into EDTA microtainer tubes (BD) from the animals prior to the huRBC transfusion and then at 30 seconds, 5 minutes, 20 minutes, 60 minutes and 120 minutes after the huRBC transfusion. […] These samples were kept shaking at room temperature prior to processing and centrifuged at 2655×g for five minutes to separate out the plasma and sediment the RBCs. Plasma was aliquoted and the RBC pellet was processed separately as described below. Upon completion of the final (120 minutes or 360 minutes) blood draw, the animal was euthanized using Fatal Plus (Vortech).
Plasma generated from the above experiments was analyzed for the free hemoglobin using spectrophotometry, as described previously (Shah et al. “Clinical hypothermia temperatures increase complement activation and cell destruction via the classical pathway.” J Transl Med 2014; 12:181.).

Solubility in water = format: physicochemical
[3] = 60 mg [240 mg/kg] i.v.; for ALT / AST / AlkPhos / BUN / Bilirubin / CPK / Creatinine / GGT / Lipase / Platelets / RBC / WBC: rats, n = 6
CV-1 cells = test: Toxicity in CV-1 cells
[4] = for ALT / AST / AlkPhos / BUN / Bilirubin / CPK / Creatinine / GGT / Lipase / Platelets / RBC / WBC: rats
Description: Toxicity studies were later performed with larger numbers of animals (n=18 in the treatment group) using a high-dose at the upper end of the therapeutic range (PA-PEG24 (SEQ ID NO: 21) at 40 mg [160 mg/kg] i.v.). Eight animals were sacrificed at day 3, and ten were sacrificed at day 14.

HSV-1 = test: HSV-1-GFP infection of CV-1 cells, flow cytometry; format: cell-based, Herpes Simplex Virus Type 1; conditions: added to CV-1 cells before infection; 16 hours
Description: CV-1 cells were infected with HSV-1-GFP for 16 hours. Post-infection, CV-1 cells were detected by flow cytometry (FIG. 33). […] Acyclovir (the standard of care for severe HSV-1 infections) was also added as a control at the same molar ratio.

[5] = 40 mg [160 mg/kg] i.v., 48 Hr, n = 8
[6] = 40 mg [160 mg/kg] i.v., Day14, n = 10

Compound: cobra venom factor [CVF]
- brain injury ([1]; CVF injection before ligation/hypoxia): almost completely attenuated brain injury
- systemic complement activity ([1]; CVF injection, for 72 hours after injection): almost completely eliminated
- free hemoglobin in rat plasma [2]: low levels of free hemoglobin

Compound: CC[C@H](C)[C@H](N)C(=O)N[C@@H](C)C(=O)N[C@@H](CC(C)C)C(=O)N[C@H](C(=O)N[C@@H](CC(C)C)C(=O)N[C@@H](CCC(=O)O)C(=O)N1CCC[C@H]1C(=O)N[C@H](C(=O)N[C@@H](CS)C(=O)N[C@@H](CS)C(=O)N[C@@H](CCC(N)=O)C(=O)N[C@@H](CCC(=O)O)C(=O)N[C@@H](CCCNC(=N)N)C(=O)N[C@@H](C)C(=O)N[C@@H](C)C(=O)NCCOCCOCCOCCOCCOCCOCCOCCOCCOCCOCCOCCOCCOCCOCCOCCOCCOCCOCCOCCOCCOCCOCCOCCOCCC(=O)O)[C@@H](C)CC)[C@@H](C)CC [PA-dPEG24]
- solubility in water / aqueous solutions (Solubility in water): soluble in water
- Solubility in water (Solubility in water; Table 6, PEGylated PA peptides): Yes
- Solubility in water (Solubility in water; Table 7, PEGylated and sarcosine/alanine substitution peptides): Yes
- organ histology ([3]; brain, heart, lungs, liver, spleen, kidneys, pancreas): Normal histology
- blood work (CBC and complete blood chemistry) ([3]; first 24 hours, 48 hours, day 7 or day 14): No toxicities
- ALT ([3]; 48 Hr): 44.0 (±10.4) U/L
- AST ([3]; 48 Hr): 69.0 (±8.7) U/L
- AlkPhos ([3]; 48 Hr): 194 (±29) U/L
- BUN ([3]; 48 Hr): 15.8 (±2.1) mg/dL
- Bilirubin ([3]; 48 Hr): 0.1 (±0) mg/dL
- CPK ([3]; 48 Hr): 142 (±47) U/L
- Creatinine ([3]; 48 Hr): 0.3 (±0) mg/dL
- GGT ([3]; 48 Hr): 1 (±0) U/L
- Lipase ([3]; 48 Hr): 10.3 (±1.5) U/L
- Platelets ([3]; 48 Hr): 1045 (±156) 10^3/μL
- RBC ([3]; 48 Hr): 5.3 (±0.3) 10^6/μL
- WBC ([3]; 48 Hr): 10.5 (±2.9) 10^3/mL
- ALT ([3]; Day7): 76.3 (±10.9) U/L
- AST ([3]; Day7): 84.3 (±6.74) U/L
- AlkPhos ([3]; Day7): 147 (±34) U/L
- BUN ([3]; Day7): 13.5 (±1.64) mg/dL
- Bilirubin ([3]; Day7): 0.1 (±0) mg/dL
- CPK ([3]; Day7): 316 (±90) U/L
- Creatinine ([3]; Day7): 0.4 (±0.1) mg/dL
- GGT ([3]; Day7): 1 (±0) U/L
- Lipase ([3]; Day7): 8.5 (±1.05) U/L
- Platelets ([3]; Day7): 623 (±417) 10^3/μL
- RBC ([3]; Day7): 5.8 (±0.5) 10^6/μL
- WBC ([3]; Day7): 5.4 (±1.12) 10^3/mL
- ALT ([3]; Day14): 55.8 (±5.6) U/L
- AST ([3]; Day14): 104 (±15) U/L
- AlkPhos ([3]; Day14): 154 (±42) U/L
- BUN ([3]; Day14): 14.7 (±1.0) mg/dL
- Bilirubin ([3]; Day14): 0.1 (±0) mg/dL
- CPK ([3]; Day14): 580 (±172) U/L
- Creatinine ([3]; Day14): 0.4 (±0.1) mg/dL
- GGT ([3]; Day14): 1 (±0) U/L
- Lipase ([3]; Day14): 9.7 (±2.0) U/L
- toxicity in CV-1 cells (CV-1 cells): minimal toxicity
- blood chemistry assay results (CBC, superchem, coagulation) ([4]; 40 mg [160 mg/kg] i.v.): no differences between pretreatment, day 3 or day 14 values
- organ histology ([4]; 40 mg [160 mg/kg] i.v., day 3 and day 14): no histological evidence for toxicity in any organ
- single-dose toxicological evaluation ([4]; rat, in vivo): no safety concerns
- ALT [4, 5]: 62.8 (±4.0) U/L
- AST [4, 5]: 108 (±26) U/L
- AlkPhos [4, 5]: 104 (±19) U/L
- BUN [4, 5]: 17.8 (±3.2) mg/dL
- Bilirubin [4, 5]: 0.1 (±0) mg/dL
- CPK [4, 5]: 538 (±128) U/L
- Creatinine [4, 5]: 0.3 (±0) mg/dL
- GGT [4, 5]: 1.0 (±0) U/L
- Lipase [4, 5]: 11.8 (±1.5) U/L
- Platelets [4, 5]: 987 (±93) 10^3/μL
- RBC [4, 5]: 5.8 (±0.5) 10^6/μL
- WBC [4, 5]: 6.0 (±3.0) 10^3/mL
- ALT [4, 6]: 77.4 (±13.9) U/L
- AST [4, 6]: 111 (±14) U/L
- AlkPhos [4, 6]: 115 (±56) U/L
- BUN [4, 6]: 13.2 (±1.9) mg/dL
- Bilirubin [4, 6]: 0.1 (±0) mg/dL
- CPK [4, 6]: 592 (±163) U/L
- Creatinine [4, 6]: 0.3 (±0) mg/dL
- GGT [4, 6]: 1.1 (±0.4) U/L
- Lipase [4, 6]: 6.4 (±1.3) U/L
- Platelets [4, 6]: 825 (±229) 10^3/μL
- RBC [4, 6]: 6.6 (±0.4) 10^6/μL
- WBC [4, 6]: 7.3 (±2.5) 10^3/mL

Compound: Nc1nc2c(ncn2COCCO)c(=O)[nH]1 [Acyclovir, reference compound]
- inhibition of HSV-1 infection / replication (HSV-1): never able to completely inhibit replication
- toxicity in CV-1 cells (CV-1 cells): minimal toxicity
